Assay results from patent US8067410B2, “Phenolic and catecholic amines and prodrugs thereof” (H. Lundbeck A/S, priority 2008, dated 2011).
Where a name gives a salt, the structure may show the parent alone. Read-outs that look alike come from different tables or passages of the source.

Tests used:
[1] = biological target: human recombinant D1 receptor (Homo sapiens, UniProt P21728); experiment: D1 cAMP assay; format: cell-based
Protocol: The ability of the compounds to either stimulate or inhibit the D1 receptor mediated cAMP formation in CHO cells stably expressing the human recombinant D1 receptor was measured as follows. Cells were seeded in 96-well plates at a concentration of 11000 cells/well 3 days prior to the experiment. On the day of the experiment the cells were washed once in preheated G buffer (1 mM MgCl2, 0.9 mM CaCl2, 1 mM IBMX (3-i-butyl-1-methylxanthine) in PBS (phosphate buffered saline)) and the assay was initiated by addition of 100 micro-L of a mixture of 30 nM A68930 and test compound diluted in G buffer (antagonism) or test compound diluted in G buffer (agonism). The cells were incubated for 20 minutes at 37° C. and the reaction was stopped by the addition of 100 micro-L S buffer (0.1 M HCl and 0.1 mM CaCl2) and the plates were placed at 4° C. for 1 h. 68 micro-L N buffer (0.15 M NaOH and 60 mM NaOAc) was added and the plates were shaken for 10 minutes. 60 micro-1 of the reaction were transferred to cAMP FlashPlates (DuPont NEN) containing 40 micro-L 60 mM Sodium acetate pH 6.2 and 100 micro-L IC mix (50 mM Sodium acetate pH 6.2, 0.1% sodium azide, 12 mM CaCl2 1% BSA (bovine serum albumin) and 0.15 micro-Ci/mL ^125I-cAMP) were added. Following an 18 h incubation at 4° C. the plates were washed once and counted in a Wallac TriLux counter.

human D2 receptor = biological target: T1, human D2 receptor (Homo sapiens, UniProt P14416); experiment: D2 cAMP assay; format: cell-based
T1 construct: expressed in transfected cells; host or cells: CHO cells
T1 sequence (P14416 whole entry): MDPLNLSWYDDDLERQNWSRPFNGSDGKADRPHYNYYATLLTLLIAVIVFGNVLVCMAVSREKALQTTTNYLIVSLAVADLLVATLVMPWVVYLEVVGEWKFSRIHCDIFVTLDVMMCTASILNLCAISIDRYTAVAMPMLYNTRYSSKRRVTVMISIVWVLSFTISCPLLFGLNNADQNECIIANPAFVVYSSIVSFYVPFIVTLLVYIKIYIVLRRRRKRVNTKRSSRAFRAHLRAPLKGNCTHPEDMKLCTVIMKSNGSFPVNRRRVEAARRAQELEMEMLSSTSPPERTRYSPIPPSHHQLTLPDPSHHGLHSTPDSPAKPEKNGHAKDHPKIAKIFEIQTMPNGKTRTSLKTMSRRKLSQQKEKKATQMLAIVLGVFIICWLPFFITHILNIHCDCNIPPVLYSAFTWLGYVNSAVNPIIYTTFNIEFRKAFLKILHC
Protocol: The ability of the compounds to either stimulate or inhibit the D2 receptor mediated inhibition of cAMP formation in CHO cells transfected with the human D2 receptor was measure as follows. Cells were seeded in 96 well plates at a concentration of 8000 cells/well 3 days prior to the experiment. On the day of the experiment the cells were washed once in preheated G buffer (1 mM MgCl2, 0.9 mM CaCl2, 1 mM IBMX in PBS) and the assay was initiated by addition of 100 micro-1 of a mixture of 1 micro-M quinpirole, 10 microM forskolin and test compound in G buffer (antagonism) or 10 micro-M forskolin and test compound in G buffer (agonism). The cells were incubated 20 minutes at 37° C. and the reaction was stopped by the addition of 100 micro-1 S buffer (0.1 M HCl and 0.1 mM CaCl2) and the plates were placed at 4° C. for 1 h. 68 micro-L N buffer (0.15 M NaOH and 60 mM Sodium acetate) were added and the plates were shaken for 10 minutes. 60 micro-L of the reaction were transferred to cAMP FlashPlates (DuPont NEN) containing 40 micro-L 60 mM NaOAc pH 6.2 and 100 micro-L IC mix (50 mM NaOAc pH 6.2, 0.1% Sodium azide, 12 mM CaCl2, 1% BSA and 0.15 micro-Ci/ml ^125I-cAMP) were added. Following an 18 h incubation at 4° C. the plates were washed once and counted in a Wallac TriLux counter.

[2] = cAMP formation in CHO cells stably expressing the human recombinant D1 receptor, read-out: D1 EC 50
[3] = inhibition of forskolin-stimulated cAMP formation in CHO cells transfected with the human D2 receptor, read-out: D2 EC 50

Chain of human recombinant D1 receptor (P21728 whole entry): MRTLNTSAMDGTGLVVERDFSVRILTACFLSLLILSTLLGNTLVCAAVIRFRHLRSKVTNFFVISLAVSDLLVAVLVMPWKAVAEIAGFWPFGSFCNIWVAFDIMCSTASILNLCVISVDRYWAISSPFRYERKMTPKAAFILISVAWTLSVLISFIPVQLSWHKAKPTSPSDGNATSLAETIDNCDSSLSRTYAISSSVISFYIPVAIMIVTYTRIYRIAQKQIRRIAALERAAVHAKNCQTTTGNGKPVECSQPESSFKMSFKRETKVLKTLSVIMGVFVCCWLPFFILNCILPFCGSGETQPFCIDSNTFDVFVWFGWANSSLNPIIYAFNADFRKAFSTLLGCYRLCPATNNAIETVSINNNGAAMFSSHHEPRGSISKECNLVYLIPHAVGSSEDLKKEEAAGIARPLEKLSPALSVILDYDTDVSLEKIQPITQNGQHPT

Row | SMILES | EC50 [1] [nM] | EC50 (human D2 receptor) [nM] | EC50 [1, 2] [nM] | EC50 (human D2 receptor; [3]) [nM]
1 | CCCN1C[C@H](Cn2ccnc2)O[C@@H]2Cc3c(cccc3OC)C[C@H]21 [Example 3e, (2R,4aR,10aR)-2-Imidazol-1-ylmethyl-9-methoxy-4-n-propyl-3,4,4a,5,10,10a-hexahydro-2H-naphtho[2,3-b][1,4]oxazine] | 5800 | 30 |  | 
2 | CCCN1C[C@H](C)O[C@@H]2Cc3c(O)cccc3C[C@H]21 [Example 5k, (2S,4aR,10aR)-2-Methyl-4-n-propyl-3,4,4a,5,10,10a-hexahydro-2H-naphtho[2,3-b][1,4]oxazin-9-ol trifluoroacetate] | 180 | 2 |  | 
3 | CCCN1CCO[C@@H]2Cc3c(ccc4c3OCO4)C[C@H]21 [Example 8c, (6aR,10aR)-7-n-Propyl-6a,7,8,9,10a,11-hexahydro-6H-1,3,10-trioxa-7-aza-cyclo-penta[a]anthracene trifluoroacetate] |  |  | > 10000 | 140
4 | CCCN1C[C@@H](CSC)O[C@@H]2Cc3c(cccc3OC)C[C@H]21 [Example 3c, (2S,4aR,10aR)-9-Methoxy-2-methylsulfanylmethyl-4-n-propyl-3,4,4a,5,10,10a-hexahydro-2H-naphtho[2,3-b][1,4]oxazine] |  |  | > 10000 | 110
5 | Oc1cccc2c1C[C@@H]1OCCN(CC3CC3)[C@H]1C2 [Example 5d2, (4aS,10aS)-4-cyclo-Propylmethyl-3,4,4a,5,10,10a-hexahydro-2H-naphtho[2,3-b][1,4]oxazin-9-ol hydrochloride] | > 10000 | 1400 |  | 
6 | CCCN1CCO[C@@H]2Cc3c(ccc(O)c3O)C[C@H]21 [Example 7, (4aR,10aR)-4-n-Propyl-3,4,4a,5,10,10a-hexahydro-2H-naphtho[2,3-b][1,4]oxazine-8,9-diol trifluoroacetate] | 200 | 0.15 |  | 
